Drawing on PubChem BioAssay (NCI), this text covers GI50 and TGI for 10 compounds.

Some test systems named below: SNB-75 CNS; SW-620 colon; M14 melanoma; PC-3 prostate; SN12C renal; UACC-257 melanoma; CCRF-CEM leukemia; A549 NSCLC.
What all share (experiment): growth of human tumour cells (NCI), 48 h

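The compound was tested at five concentrations on cells cultured in 96-well plates, with a 48-hour exposure period. Here, GI50 denotes the concentration required for 50% inhibition of growth. The concentration for full growth arrest is given as TGI.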 A value given as a limit tells only on which side of the number the result lay.

Consider `COc1ccc2c(ccc3oc([N+](=O)[O-])cc32)c1`, for which the GI50 was 0.201 µM in the experiment with SNB-75 CNS; 0.178 µM in the experiment with SW-620 colon; 0.0454 µM in the experiment with M14 melanoma; 0.305 µM with PC-3 prostate; 0.274 µM in the experiment with SN12C renal; 0.137 µM in the experiment with UACC-257 melanoma. Further, the GI50 in the experiment with CCRF-CEM leukemia was 0.09 µM; with A549 NSCLC it was 0.274 µM. Also, the TGI with SNB-75 CNS amounted to 0.573 µM; in the experiment with SW-620 colon, 10.8 µM; with M14 melanoma, 0.186 µM; with PC-3 prostate, 3.63 µM; in the experiment with SN12C renal it was 7.03 µM; in the experiment on UACC-257 melanoma, 0.43 µM. Further, the TGI in the experiment on CCRF-CEM leukemia is > 40.7 µM; in the experiment with A549 NSCLC it was 1.04 µM.

As for `COc1cc(NC(=O)c2cc3ccccc3cc2O)c(OC)cc1Cl`, the GI50 is 1.44 µM in the experiment with SNB-75 CNS; 3.08 µM in the experiment with SW-620 colon; 2.74 µM with M14 melanoma; 1.56 µM with PC-3 prostate; 1.87 µM with SN12C renal; 2.05 µM with UACC-257 melanoma. In addition, the values for the GI50 in the experiment on CCRF-CEM leukemia and in the experiment with A549 NSCLC were 2.61 µM and 2.46 µM, respectively. Besides, the TGI in the experiment on SNB-75 CNS is 5.04 µM; in the experiment with SW-620 colon, > 34.5 µM; in the experiment on M14 melanoma, > 100 µM; with PC-3 prostate it was 4.46 µM; in the experiment on SN12C renal, 6.36 µM; with UACC-257 melanoma it was 5.55 µM. Besides, the TGI was > 20.5 µM with CCRF-CEM leukemia and 7.47 µM in the experiment with A549 NSCLC.

Consider `COC(=O)C1OC(SCCN)C(O)C(O)C1O` (stereo not drawn), for which the TGI in the experiment on SNB-75 CNS, in the experiment on SW-620 colon, in the experiment on M14 melanoma, in the experiment on PC-3 prostate, in the experiment with SN12C renal and in the experiment with UACC-257 melanoma was > 100 µM throughout. The TGI in the experiment with CCRF-CEM leukemia and in the experiment on A549 NSCLC was > 100 µM in each case.

For `NC1=CC(=O)C(=O)c2ccccc21`, the GI50 in the experiment with SNB-75 CNS is 13.8 µM; in the experiment on SW-620 colon, 17.6 µM; in the experiment with M14 melanoma, 9.59 µM; in the experiment on PC-3 prostate, 17.9 µM; with SN12C renal, 2.77 µM; in the experiment on UACC-257 melanoma it was 5.63 µM. Also, the GI50 in the experiment with A549 NSCLC was 28.2 µM. Moreover, the TGI came to 27.1 µM with SNB-75 CNS; 38.4 µM in the experiment on SW-620 colon; 21.3 µM in the experiment on M14 melanoma; 70.5 µM with PC-3 prostate; 17.4 µM with SN12C renal; 18.2 µM in the experiment with UACC-257 melanoma. Also, the TGI with A549 NSCLC is 97.6 µM.

`CCSc1nnc(-c2ccc3ccccc3c2O)n1-c1ccccc1`: the results for the GI50 in the experiment with SNB-75 CNS, in the experiment on SN12C renal and with UACC-257 melanoma were 71 µM, > 100 µM and > 100 µM, respectively. Further, the TGI with SNB-75 CNS, with SN12C renal and with UACC-257 melanoma was > 100 µM in each case.

For the compound `N#Cc1cc2c(=S)[nH]c(=S)[nH]c2nc1SCc1ccccc1`, the GI50 was 48.9 µM with SW-620 colon; 58.2 µM in the experiment with M14 melanoma; 23.6 µM in the experiment on PC-3 prostate; 22.7 µM with SN12C renal; 47.4 µM in the experiment on UACC-257 melanoma; 33.1 µM in the experiment with CCRF-CEM leukemia. For the same compound, the GI50 in the experiment on A549 NSCLC was 32.3 µM. For the same compound, the TGI with SW-620 colon, with M14 melanoma, in the experiment with PC-3 prostate, with SN12C renal, with UACC-257 melanoma and with CCRF-CEM leukemia was > 100 µM each time. In addition, the TGI with A549 NSCLC was > 100 µM.

`C=C(C)[C@@H]1CC[C@]2(COC(=O)c3ccccc3C(=O)O)CC[C@]3(C)[C@H](CC[C@@H]4[C@@]5(C)CC[C@H](OC(=O)c6ccccc6C(=O)O)C(C)(C)[C@@H]5CC[C@]43C)[C@@H]12`: the GI50 is 15.4 µM in the experiment with SNB-75 CNS; 97.7 µM in the experiment with SW-620 colon; 44.9 µM in the experiment with M14 melanoma; 34.6 µM with PC-3 prostate; 60.8 µM in the experiment with SN12C renal; 71.3 µM with UACC-257 melanoma. The GI50 was 30.5 µM in the experiment on CCRF-CEM leukemia and 29.8 µM in the experiment with A549 NSCLC. The TGI in the experiment with SNB-75 CNS was 36 µM; in the experiment on SW-620 colon, > 100 µM; in the experiment on M14 melanoma it was > 100 µM; in the experiment on PC-3 prostate, > 100 µM; in the experiment on SN12C renal it was > 100 µM; in the experiment with UACC-257 melanoma, > 100 µM. Besides, the TGI with CCRF-CEM leukemia and with A549 NSCLC was > 100 µM in each case.

Turning to `COc1ccc(/C=N/C2=NNC(C)(c3ccccc3O)N2C(Cc2c[nH]c3ccccc23)C(=O)O)cc1` (stereo not drawn), the GI50 is 1.72 µM in the experiment with SNB-75 CNS; 3.17 µM in the experiment on SW-620 colon; 2.35 µM with M14 melanoma; 2.68 µM in the experiment on PC-3 prostate; 3.11 µM in the experiment on SN12C renal; 3.53 µM in the experiment with UACC-257 melanoma. The results for the GI50 in the experiment on CCRF-CEM leukemia and with A549 NSCLC were 3.04 µM and 4.44 µM, respectively. Moreover, the TGI was determined as 13.4 µM in the experiment with SNB-75 CNS; 12.1 µM in the experiment with SW-620 colon; 8.77 µM in the experiment with M14 melanoma; 11.6 µM in the experiment on PC-3 prostate; 11.3 µM in the experiment on SN12C renal; 10.8 µM with UACC-257 melanoma. Besides, the TGI with CCRF-CEM leukemia came to 40.4 µM; with A549 NSCLC, 30.5 µM.

As to `COc1cc2c3c(n(CCCN=[N+]=[N-])c(=O)c2cc1OC)-c1ccc(NC(C)=O)cc1C3=O`, the GI50 is 25.8 µM in the experiment on SNB-75 CNS; > 50 µM in the experiment with SW-620 colon; > 50 µM with M14 melanoma; > 50 µM in the experiment with PC-3 prostate; > 50 µM in the experiment with SN12C renal; > 50 µM in the experiment with UACC-257 melanoma. The GI50 in the experiment on CCRF-CEM leukemia and in the experiment with A549 NSCLC was > 50 µM each time. Besides, the TGI in the experiment on SNB-75 CNS, with SW-620 colon, with M14 melanoma, with PC-3 prostate, with SN12C renal and with UACC-257 melanoma was > 50 µM in each case. Further, the TGI in the experiment on CCRF-CEM leukemia and in the experiment with A549 NSCLC was > 50 µM throughout.

Turning to `COc1ccc(OC)c(-c2nc3sc(C)cn3c2/C=C2\C(=O)N(C)c3ccccc32)c1`, the GI50 is 17.9 µM with SNB-75 CNS; 35.6 µM in the experiment on SW-620 colon; 25.4 µM in the experiment on M14 melanoma; 20.9 µM with PC-3 prostate; 20.6 µM in the experiment on SN12C renal; 29.5 µM in the experiment with UACC-257 melanoma. Besides, the GI50 in the experiment with CCRF-CEM leukemia was 5.8 µM; in the experiment with A549 NSCLC, 28.4 µM. Further, the TGI was 47.9 µM with SNB-75 CNS; > 100 µM in the experiment with SW-620 colon; 80.3 µM in the experiment on M14 melanoma; > 100 µM in the experiment on PC-3 prostate; 50.7 µM with SN12C renal; 82.6 µM in the experiment on UACC-257 melanoma. For the same compound, the TGI in the experiment with CCRF-CEM leukemia is 83 µM; with A549 NSCLC it was > 100 µM.
